Assay results from ChEMBL document CHEMBL1811875, “Inverse virtual screening of antitumor targets: pilot study on a small database of natural bioactive compounds” (J Nat Prod, 2011).

Columns and labels:
NCI-H460 = experiment: Cytotoxicity against human H460 cells assessed as stimulation of topoisomerase 1-mediated DNA cleavage; assay type: functional, cell-based
DNA topoisomerase 1 = target: T1, DNA topoisomerase 1 (Homo sapiens, UniProt P11387); experiment: Binding affinity to topoisomerase 1
T1 sequence (P11387 whole entry): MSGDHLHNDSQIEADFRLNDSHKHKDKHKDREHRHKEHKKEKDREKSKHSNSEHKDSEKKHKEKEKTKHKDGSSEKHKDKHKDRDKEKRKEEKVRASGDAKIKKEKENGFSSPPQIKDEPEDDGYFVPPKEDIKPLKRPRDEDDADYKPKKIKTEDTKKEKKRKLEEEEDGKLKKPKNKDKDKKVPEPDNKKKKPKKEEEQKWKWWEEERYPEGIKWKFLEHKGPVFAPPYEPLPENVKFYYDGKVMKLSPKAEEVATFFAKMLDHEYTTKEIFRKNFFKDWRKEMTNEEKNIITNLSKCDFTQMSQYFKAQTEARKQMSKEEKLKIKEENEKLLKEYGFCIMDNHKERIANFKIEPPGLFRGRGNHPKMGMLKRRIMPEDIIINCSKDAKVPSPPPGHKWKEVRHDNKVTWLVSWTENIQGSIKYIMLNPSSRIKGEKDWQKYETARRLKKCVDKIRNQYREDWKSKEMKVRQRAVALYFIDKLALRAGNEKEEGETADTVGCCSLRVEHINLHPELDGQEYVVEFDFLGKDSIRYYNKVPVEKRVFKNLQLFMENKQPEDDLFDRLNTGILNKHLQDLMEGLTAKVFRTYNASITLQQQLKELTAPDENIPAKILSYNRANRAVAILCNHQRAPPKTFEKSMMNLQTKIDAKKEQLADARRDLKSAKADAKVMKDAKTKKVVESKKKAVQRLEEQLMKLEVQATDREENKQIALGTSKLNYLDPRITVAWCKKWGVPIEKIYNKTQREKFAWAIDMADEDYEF

Wee1-like protein kinase = Wee1-like protein kinase (Homo sapiens, UniProt P30291); experiment: Binding affinity to weel kinase
Sequence of Wee1-like protein kinase (P30291 whole entry): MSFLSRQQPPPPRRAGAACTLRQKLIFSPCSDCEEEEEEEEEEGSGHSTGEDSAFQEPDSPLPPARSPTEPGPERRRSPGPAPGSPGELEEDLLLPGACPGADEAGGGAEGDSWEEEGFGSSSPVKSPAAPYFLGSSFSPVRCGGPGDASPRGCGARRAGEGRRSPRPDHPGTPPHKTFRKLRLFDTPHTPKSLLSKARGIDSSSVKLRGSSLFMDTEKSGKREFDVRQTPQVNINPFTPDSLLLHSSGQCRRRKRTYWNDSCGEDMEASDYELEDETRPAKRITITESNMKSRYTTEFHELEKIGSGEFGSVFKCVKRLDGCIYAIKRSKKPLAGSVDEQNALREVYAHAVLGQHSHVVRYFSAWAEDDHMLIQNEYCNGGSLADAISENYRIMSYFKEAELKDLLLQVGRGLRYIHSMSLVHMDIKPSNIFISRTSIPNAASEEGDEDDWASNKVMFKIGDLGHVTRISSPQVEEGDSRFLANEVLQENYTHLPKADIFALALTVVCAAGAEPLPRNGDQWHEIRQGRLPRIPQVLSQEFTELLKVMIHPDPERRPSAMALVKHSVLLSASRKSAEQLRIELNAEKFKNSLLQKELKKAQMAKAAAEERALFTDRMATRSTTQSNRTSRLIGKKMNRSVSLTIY

Question: With `CC[C@@]1(O)C(=O)OCc2c1cc1n(c2=O)Cc2c-1nc1ccccc1c2/C=N/c1ccccc1C` as the molecule, how does the IC50 (NCI-H460) read?
Answer: Its IC50 is 400 nM.

Question: And the Kd (DNA topoisomerase 1)?
Answer: Its Kd is 0.296 nM.

Question: How did the IC50 (NCI-H460) turn out when `CC[C@@]1(O)C(=O)OCc2c1cc1n(c2=O)Cc2cc3c(CN(C)C)c(O)ccc3nc2-1` [TOPOTECAN] was run?
Answer: Its IC50 is 1380 nM.

Question: Which results are given for `CC[C@@]1(O)C(=O)OCc2c1cc1n(c2=O)Cc2c-1nc1ccccc1c2/C=N\OCCCO`?
Answer: IC50 (NCI-H460): 400 nM; Kd (DNA topoisomerase 1): 2.65 nM

Question: Which Kd (Wee1-like protein kinase) does the source give for `Cc1cc(=O)c2c(O)cc3c(c2o1)C(=O)c1c(O)cc(O)cc1C3=O` [TOPOPYRONE C] here?
Answer: Its Kd is 1.35 nM.
